# Data taken from US20150359757A1, “A METHOD FOR IMPROVING THE WELLBEING OF AN ANIMAL USING A COMPOSITION INCLUDING VITAMIN K” (priority 2013, published 2015).
# Tests used:
# [1] = from vegetable sources, humans; cited from earlier work
# [2] = tested on: animals; settings: cited from earlier work
# [3] = tested on: carboxylation of endogenous precursors; settings: cited from earlier work
# [4] = tested on: turkeys; assay: Turkey feeding experiment, Example 8; assay type: in vivo
# Experimental: An experiment was conducted in turkeys. In this experiment all diets used in this study were identical in nutrients, the only difference being that the control diets contained 4 gm/tonne K3 and the experimental diet contained the formulated vitamin KQ at 580 mg/tonne or per 1000 L.
# Three groups of 5000 turkeys (15000 turkeys per farm) were used. In the control groups 1 and 3 were fed Vitamin K3 (4 gm/tonne of food). Experimental group 2 was fed Vitamin KQ (580 mg formulated K1/K2/Example 2/tonne of food). 200 turkeys from each group were then weighed at 10 weeks.
# [5] = tested on: chickens (broilers); assay: Broiler chicken feeding experiment, Example 11; assay type: in vivo
# Experimental: An experiment was conducted with chickens (broilers). 41,000 chickens were in a control group and were fed 4 gm/tonne vitamin K3. 41,000 thickens were in an experimental group and fed on experimental diet of 580 mg of Vitamin KQ (Example 2) formulated per tonne of food. Results were determined after the chickens were 30 days old.
# [6] = tested on: layer hens; assay: Caged layer fatigue, X-ray bone density in layer hens, Example 12; assay type: in vivo
# [7] = tested on: laying birds; assay: Old laying birds feeding experiment, Example 14; assay type: in vivo
# Experimental: An experiment was conducted with old laying birds aged 21 weeks. 20,000 birds were given 580 mg formulated vitamin KQ/tonne of food (Example 2), instead of the control diet of 4 gm/tonne Vitamin K3.
# [8] = tested on: chickens; assay: Chickens hatched from breeder layer eggs, bone density and bone ash, Example 15; assay type: in vivo
# Experimental: An experiment was conducted with laying birds and broilers: • A) Chickens hatched from the breeder layer eggs (fed 580 mg/tonne of formulated vitamin KQ) contained 50-100 ug Vitamin K1 per egg from day 1 (Example 2); • B) Chickens hatched from the breeder layer eggs were fed 4 gm/tonne vitamin K3 from day 1 contained 4-10 ug vitamin K1 per egg from day 1.
# 1000 chickens from each group were slaughtered at day 35 and X-rayed.
# [9] = tested on: ducks; assay: Duck rearing/fattening trial, Example 16; assay type: in vivo; settings: up until the 10th week, KQ 580 mg or K3 4 gm per 1000 L water
# Experimental: An experiment was conducted with ducks. In the duck's rearing/fattening a similar experience was found as with chickens and turkeys with respect to observations of weight, welfare and behaviour. Duration of trial: 16 weeks • Age: Supplemented from day 7 onwards • Amount: 7,500 birds • Experimental Group: 3,500 birds • Control Group: 4,000 birds • Dosage: Treatment 580 mg KQ per 1000 L water (Example 2). Control 4 gm vitamin K3 per 1000 L water • Dosage given for 24 hours 3× per week.
# [10] = tested on: prothrombin synthesis; settings: in animals; cited from earlier work
# [11] = tested on: calcium transfer from luman-blood; settings: chickens, 2.5 umole of menadione/kg (430 ugK3/Kg bwt.); cited from earlier work
# [12] = complete feed formulation of multivitamins, choline chloride and trace mineral premix; room temperature; 4 months; cited from earlier work
structure (smiles),measurement,setting,value
"CC1=C(C/C=C(\C)CCC[C@H](C)CCC[C@H](C)CCCC(C)C)C(=O)c2ccccc2C1=O [vitamin K1, phylloquinone]",bioavailability,[1],4.7-15%
same,dose consumed that does not result in any toxicity,[2]; animals,25 gm/kg
same,relative activity versus menadione Vitamin K3,[3],4 times
"CC1=CC(=O)c2ccccc2C1=O [Vitamin K3, menadione]",E. coli / colibacillus infection (observation),[4]; turkeys,colibacillus infection was evident
same,weight deviation,"[4]; turkeys at 10 weeks, K3 4 gm/tonne of food",up to 1.2 kg
same,average weight,"[4]; turkeys at 10 weeks, KQ 580 mg/tonne, K3 4 gm/tonne of food",6.97 kg
same,Dropsy,[5]; broilers,0.36%
same,Marketable animals according an official poultry meat inspector,[5]; broilers,95.25%
same,Marketable feet A quality,[5]; broilers,81.37%
same,Skin infections,[5]; broilers,3.65%
same,birds with broken bones at slaughter,"[5]; of 41,000 birds slaughtered",3200 birds
same,Change % of RBAE bone density,"[6]; Day 27 to Day 35, 250 ug/bird/day",−5.4%
same,effect on bone growth / strength (observation),[6]; layer hens,deceased bone growth
same,effect on caged layer fatigue (loss of bone density),[6]; layer hens,failed to prevent the disease
same,"bone density as RBAE (Radiographic bone aluminium equivalents), Day 27","[6]; layer hens, 250 ug/bird/day, Day 27",3.85 mm
same,"bone density as RBAE (Radiographic bone aluminium equivalents), Day 35","[6]; layer hens, 250 ug/bird/day, Day 35",3.64 mm
same,eggs per day,"[7]; 20,000 birds, KQ 580 mg/tonne, K3 4 gm/tonne of food","14,800 eggs per day"
same,% eggs layed,[7]; age of layers 2 weeks,92%
same,% eggs layed,[7]; age of layers 21 weeks,92%
same,% eggs layed,[7]; age of layers 60 weeks,74%
same,% eggs layed,[7]; age of layers 90 weeks,54%
same,"bone density as RBAE (Radiographic bone aluminium equivalents), Day 35","[8]; chickens hatched from breeder layer eggs, slaughtered at day 35, K3 4 gm/tonne, KQ 580 mg/tonne of feed",3.64 mm
same,Bone Ash,[8]; chickens slaughtered at day 35,35%
same,bone ash relative to that of Vitamin KQ,[8]; day 35,83%
same,bone density relative to that of Vitamin KQ,[8]; day 35,60%
same,feather picking (observation),[9],extensive feather picking
same,dose at which toxic levels are reached,[2]; animals,0.5 mg/kg
same,more toxic than vitamin K1,[2]; relative to vitamin K1,at least 50 ×
same,"effect on prothrombin synthesis, times lower",[10],approximately 100 times
same,duration of inhibition of calcium transfer,[11],6 to 10 h
same,time to inhibition of calcium transfer,[11],≤ 30 min
"CC1(S(=O)(=O)[O-])CC(=O)c2ccccc2C1=O.[Na+] (stereo not drawn) [MSB, menadione sodium bisulphite]",retained (stability),[12],33%
"CC1(S(=O)(=O)O)CC(=O)c2ccccc2C1=O.Cc1cc(C)[nH]c(=O)n1 (stereo not drawn) [MPB, menadione dimethyl-pyrimidol bisulphite]",retained (stability),[12],57%
